Source: paper PMC7708446, “^18F-meta-fluorobenzylguanidine (^18F-mFBG) to monitor changes in norepinephrine transporter expression in response to therapeutic intervention in neuroblastoma models” (Scientific Reports, 2020)

Columns and labels:
NET-1 [1] = test: Ex vivo Western blot of NET-1 in tumour lysates of treated animals; design: species or system mice
Description: (§1) Western blotting (WB) was performed as previously described. Antibodies were obtained from Cell Signalling Technologies (London, UK) unless stated otherwise: GAPDH, beta-actin, p-Akt^S473, Akt, p-4EBP1^T37/46, p-S6^S240/244, S6, N-MYC (Merck Millipore, Watford, UK), NET-1 (mAbTechnologies, Stone Mountain, Georgia), anti-rabbit HRP, anti-mouse HRP. Blots were visualised with SuperSignal West Pico and Femto Chemiluminescent Substrate (Thermo Fisher Scientific, Loughborough, UK) and ChemiDoc XRS + System (BioRad, Watford, UK). Data were processed and band density analysed with ImageJ and Image Lab 6.0 (BioRad, Watford, UK).

NET-1 [2] = test: Western blot of total NET-1 protein in SK-N-BE(2)C cells after AZD2014; format: cell-based, human; details: seen at 24 h, maintained at 72 h
Description: Given the potential role of Akt in NET-1 protein synthesis and surface expression, we further looked at NET-1 protein levels following AZD2014 treatment. […] In Kelly cells, the WB analysis was not sensitive enough to detect and accurately quantify the inherently low expression of the target protein.
as §1

Kelly cells = test: Cell viability (CellTiter-Glo) after 72 h AZD2014, Kelly; format: cell-based; details: Homo sapiens, read-out: GI50 (concentration that reduced cell viability by 50%)
Description: (§2) To assess the cellular response to mTORC1/2 inhibition, Kelly and SK-N-BE(2)C cell lines, both of which over-express MYCN protein (Fig. 1b), were incubated with AZD2014 (0 to 1 µM) for 72 h. […] Key substrates of AZD2014- induced mTORC1/2 inhibition were assessed by WB.
(§3) Supplementary Figure 5: NB cell viability after 72 h treatment with AZD2014 (0–1 µM) analysed by Celltiter Glo assay. Data presented as mean ± SEM, n ≥ 3 per group, performed in triplicate. Graph is generated using GraphPad Prism (v 8.4.1), https://www.graphpad.com.

NET-1 [3] = target: T1, NET-1 (Homo sapiens, UniProt P23975); test: Radiotracer cell uptake after AZD2014 pre-treatment, SK-N-BE(2)C cells; format: cell-based; details: for increase of ^18F-mFBG uptake: vs untreated control
T1 construct: SK-N-SH, SK-N-BE(2)C, Kelly, NBLS human NB cell lines; endogenous in cells; host or cells: SK-N-SH, SK-N-BE(2)C, Kelly, NBLS human neuroblastoma cell lines
T1 sequence (P23975 whole entry): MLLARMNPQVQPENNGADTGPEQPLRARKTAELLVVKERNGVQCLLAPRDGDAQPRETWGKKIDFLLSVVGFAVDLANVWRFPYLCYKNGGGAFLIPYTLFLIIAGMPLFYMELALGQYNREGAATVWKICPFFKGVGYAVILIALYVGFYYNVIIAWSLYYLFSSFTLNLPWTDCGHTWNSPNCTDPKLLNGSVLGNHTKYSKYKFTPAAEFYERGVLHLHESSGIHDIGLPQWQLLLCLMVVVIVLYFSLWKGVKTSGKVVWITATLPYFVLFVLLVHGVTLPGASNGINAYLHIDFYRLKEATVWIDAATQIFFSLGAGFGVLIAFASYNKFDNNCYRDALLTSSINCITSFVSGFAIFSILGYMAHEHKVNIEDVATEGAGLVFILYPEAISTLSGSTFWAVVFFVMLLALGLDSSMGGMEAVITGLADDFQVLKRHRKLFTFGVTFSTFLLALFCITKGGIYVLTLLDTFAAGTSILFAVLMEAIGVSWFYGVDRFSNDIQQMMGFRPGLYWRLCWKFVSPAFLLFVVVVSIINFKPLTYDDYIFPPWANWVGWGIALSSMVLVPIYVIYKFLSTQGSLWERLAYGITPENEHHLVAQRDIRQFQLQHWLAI
Description: (§4) To investigate potential changes in NET-1 function following an AZD2014-induced increase in protein expression, ^18F-mFBG and ^123I-mIBG cell uptake assays were performed in Kelly and SK-N-BE(2)C cells incubated with the drug (0–500 nM) for 24 and 72 h. […] Perhaps due to the already high expression of NET-1, increase in radiotracer uptake was less evident in SK-N-BE(2)C cells (39 ± 9% and 62 ± 5%, respectively). […].
(§5) To test the response of cell uptake using the mTOR1/2 inhibitor AZD2014 (0–500 nM) (vistusertib, Stratech Scientific, Ely, UK), a stock solution of the drug (10 mM) in dimethyl sulfoxide (DMSO, Sigma Aldrich, Gillingham, UK) was initially prepared and then diluted in culture medium to a final DMSO concentration of < 0.1%. Radiotracer uptake was assessed in cells 24 and 72 h after incubation with AZD2014. The uptake was normalised to cell viability as performed using the CellTiter-Glo assay (Promega, Southampton, UK). The data are expressed as the average of n = 3 independent experiments (performed in triplicate) ± SEM.

mTORC1/2 [4] = test: Western blot of mTORC1/2 substrates in Kelly and SK-N-BE(2)C cells; format: cell-based, human
Description: as §1

mTORC1/2 [5] = test: Ex vivo IHC/Western blot of mTOR signalling in treated tumours; design: species or system mice; details: Kelly xenografts 25 mg/kg/day, 3 days
Description: as §1
Formalin-fixed (10% v/v) paraffin-embedded tumours were sectioned to a thickness of 5 µm. Tumour sections underwent heat-induced epitope retrieval with a citric acid based antigen unmasking solution (H3300, Vector Laboratories, Peterborough, UK). The primary NET-1 antibody (AMT-002, Alomone Labs, Jerusalem, Israel), p-S6^S240/244 and p-4EBP1^T37/46 were added and incubated overnight at 4 °C. Endogenous peroxidases were blocked (2% H2O2 in methanol, 10 min, RT) before incubation with a secondary HRP-conjugated antibody. For chromogen development, slides were processed using a diaminobenzidine (DAB)-peroxidase substrate kit (4 min, Immpact DAB, SK-4105, Vector Laboratories, Peterborough, UK). […]

SK-N-BE(2)C cells = test: Cell viability (CellTiter-Glo) after 72 h AZD2014, SK-N-BE(2)C; format: cell-based; details: Homo sapiens, read-out: GI50 (concentration that reduced cell viability by 50%)
Description: as §2, §3

NET-1 [6] = test: Radiotracer cell uptake after AZD2014 pre-treatment, Kelly cells; format: cell-based, human; details: for increase of ^18F-mFBG uptake: vs untreated control
Description: as §4, §5

Kelly xenografts = test: AZD2014 treatment of Kelly xenograft mice (body weight, tumour growth); format: in vivo; details: 25 mg/kg/day
Description: All studies were conducted in compliance with licenses issued under the UK Animals (Scientific Procedures) Act 1986 and approved by the Institute of Cancer Research Animal Welfare and Ethical Review Body (AWERB) according to the United Kingdom National Cancer Research Institute Guidelines for Animal Welfare in Cancer Research (project license PCC916B22, Animals in Science Regulation Unit, Home Office Science, London, UK)[65]. […]; 20–22 g) obtained from an in-house breeding colony were used in the studies. Animals were housed in a temperature-controlled facility with 12 h on–12 h off light cycle and provided water and laboratory rodent food ad libitum. Subcutaneous xenografts were generated by injection of either Kelly (5 × 10^6/0.1 mL PBS/Matrigel 30% v/v; BD Matrigel Matrix, BD Bioscience, San Jose, California, US) or SK-N-BE(2)C (1 × 10^6/0.1 mL PBS/Matrigel) into the lower flank. For the treatment studies, AZD2014 stock solution in DMSO was diluted in PEG400 to a final concentration of 2 mg/mL (10% DMSO maximum). When tumours reached ~ 100 mm^3 (calliper measurements using formula: Volume = (Width(2) × Length)/2), mice were treated daily, for a total of either 1, 3 or 7 days, by oral gavage with AZD2014 (20 or 25 mg/kg/day) or vehicle control. Mice were monitored daily for body weight or other adverse effects.

NB tumours = system: NB tumours; design: method as in PMID 15490487, PMID 3181182, PMID 22700000; details: NB patients; cited from earlier work
[7] = Biodistribution and PET statements pooled over Kelly and SK-N-BE(2)C xenograft-bearing mice; format: in vivo; details: ^123I-mIBG 24 h p.i.
Description: When the tumours reached approximately 100–200 mm^3, mice were anaesthetised with an isoflurane/O2 mixture (1.5–2.0% v/v) and intravenously injected with either ^18F-mFBG (~ 7.5 MBq) or ^123I-mIBG (~ 20 MBq). Mice were then imaged using an Albira PET/SPECT/CT scanner (Bruker, Coventry, UK). […] Acquisition, reconstruction and image analysis were performed as described previously. Following the final scan, the mice were sacrificed and the major organs were excised, weighed and their associated radioactivity was measured using a γ-counter. Biodistribution and image quantification were expressed as a percentage of injected dose per gram of tissue (%ID/g), whereby 1 cm^3 on PET acquisitions were assumed to equal 1 g (n ≥ 3 mice ± SD).

NET-1 [8] = target: T1, NET-1; test: ^18F-mFBG / ^123I-mIBG uptake in NB cell lines with and without desipramine; format: cell-based; details: 1 h at 37 °C, rank among Kelly, SK-N-SH, NBLS
Excerpt: Figure 1 (a) Simplified radiosynthesis scheme of ^18F-mFBG by copper-mediated deborylation. (b) Total NET-1 protein expression in selected NB cell lines determined by Western blot. Full length blots are presented in Supplementary Figure WB1. […] Data are presented as mean ± SEM, n ≥ 2 per group, performed in triplicate. Graphs are generated using GraphPad Prism (v 8.4.1), https://www.graphpad.com.
For each cell line the cell-associated radioactivity was normalised to the number of cells and then each group was presented as a percentage of the signal acquired for SK-N-BE(2)C cells (mean of n = 3 independent experiments performed in triplicate ± SEM).

[9] = Kelly and SK-N-BE(2)C, Western blot

With CNC(=O)c1cccc(-c2ccc3c(N4CCOC[C@@H]4C)nc(N4CCOC[C@@H]4C)nc3n2)c1 [AZD2014] the “NET-1 expression in tumour lysates, control vs treated” value (NET-1 [1]; Kelly, 25 mg/kg/day 3 days, p = 0.84, n = 2) was “no difference”, the “NET-1 expression in tumour lysates” value (NET-1 [1]; SK-N-BE(2)C, 20 mg/kg/day 3 days, not significant (p = 0.07, n = 4)) was “increase” and the “total NET-1 protein expression” value (NET-1 [2]) was “prominent and persistent increase”. For the same compound, the GI50 (Kelly cells) was 476 nM, the “increase of ^18F-mFBG uptake” value (NET-1 [3]; 200 nM AZD2014, 72 h) was 39 ± 9% and the “increase of ^18F-mFBG uptake” value (NET-1 [3]; 500 nM AZD2014, 72 h) was 62 ± 5%. The “^123I-mIBG and ^18F-mFBG uptake” value (NET-1 [3]; AZD2014 0–500 nM, 24 h) was “concentration-dependent increase”, the MYCN protein expression (mTORC1/2 [4]; [9]) was “not robustly reduced” and the “phosphorylation of S6 and 4EBP1” value (mTORC1/2 [4]; [9]) was “concentration dependent decrease”. For the same compound, the “p-Akt^S473 inhibition” value (mTORC1/2 [4]; both cell lines, after 72 h incubation) was “not sustained”, the “p-Akt^S473” value (mTORC1/2 [4]; both cell lines, early time points (3–12 h)) was “concentration-dependent downregulation” and the “mTORC1/2 inhibition in vivo (p-S6^S240/244, p-4EBP1^T37/46 IHC)” value (mTORC1/2 [5]) was “failed to inhibit”. The GI50 (SK-N-BE(2)C cells) was 307 nM, the “increase of ^18F-mFBG uptake” value (NET-1 [6]; 200 nM AZD2014, 72 h) was 128 ± 23% and the “increase of ^18F-mFBG uptake” value (NET-1 [6]; 500 nM AZD2014, 72 h) was 292 ± 27%. For the same compound, the “^123I-mIBG and ^18F-mFBG uptake” value (NET-1 [6]; AZD2014 0–500 nM, 24 h) was “concentration-dependent increase”, the “body weight lost compared to the vehicle control” value (Kelly xenografts; oral gavage, 3 days post-treatment initiation) was ~ 10% and the tumour growth (Kelly xenografts; Kelly xenografts, n = 3, p < 0.0001) was “impeded”.

For N=C(N)NCc1cccc([131I])c1 [^131I-mIBG, meta-iodobenzylguanidine], the clinical response (NB tumours) is listed as 0 to 57%.

With NC(N)=NCc1cccc(I)c1 [^123I-mIBG, meta-iodobenzylguanidine, reference compound] the “Tumour-to-background ratios compared with ^18F-mFBG” value [7] was “greater”, the “cell-associated radioactivity, SK-N-BE(2)C” value (NET-1 [8]) was “greatest uptake” and the “cell-associated radioactivity, Kelly” value (NET-1 [8]; SK-N-BE(2)C) was “least uptake”.
